According to a melting point compilation (Tetko et al.; mined from patent text by program, amines drawn as free bases though some values may be those of a salt):

| SMILES | melting point |
| --- | --- |
| CC(CCCc1ccccc1)n1nnc2c(=O)[nH]c(C(=O)c3ccccc3)nc21 (configuration not stated) | 105 °C |
| O=C1c2ccccc2C(=O)N1OCCCN1CCN(c2nsc3ccccc23)CC1 | 143 to 144 °C |
| CC(C)[C@H](NC(=O)OCc1ccccc1)C(=O)NC(Cc1ccccc1)C(O)C(Cc1ccccc1)NC(=O)[C@@H](NC(=O)c1cccnc1)C(C)C (some centres not stated) | 196 to 199 °C |
| Cc1nc(CC2OC(CO)C(O)C2O)n2nc(N(C)C)ccc12 (configuration not stated) | 231 to 232 °C |
| CCCCNc1c(C(=O)OCC)cnc2cn[nH]c12 | 86 to 95 °C |
| CC(C)Cn1c(=O)c2nc(-c3ccc(/C=C/C(=O)O)cc3)[nH]c2n(CC(C)C)c1=O | > 300 °C |
| CC(c1cccc2c1C(=O)NS2(=O)=O)[Si](C)(C)C (configuration not stated) | 123 to 125 °C |
| CC1(C)OC(C=Cc2ccnc3ccccc23)=CC1=O | 117 to 118 °C |
| O=C(O)C1=Cc2cc(-c3ccc(Br)cc3)ccc2OC1C(F)(F)F (configuration not stated) | 215 to 216 °C |
| Fc1cc(Cl)cc2cc(-c3ccccc3)[nH]c12 | 153 to 155 °C |
| COC(=O)C(O)C(CC(C)C)NC(=O)C(CC(C)C)NC(=O)C(CC(=O)N1CCOCC1)Cc1cccc2ccccc12 (mixture of isomers) | 69 to 70 °C |
| CCc1noc(-c2cn(-c3nccnn3)cn2)n1 | 181 to 182 °C |
| C[C@H](NC(=O)CCSC(=O)c1ccccc1)C(=O)O | 99 to 100 °C |
| CCOC(=O)C(C)Oc1ccc(C(C)=O)cc1 (configuration not stated) | 49.6 °C |
| COC(=N)NC(=O)NC(C)C | 64 to 67 °C |
| CC1(C)CC(NC(=O)CCC(=O)O)CC(C)(C)N1OC1CCCCC1 | 136 to 138 °C |
| COc1cncnc1-c1ssc(=S)c1C | 136 °C |
| C=CCc1cc2c(c(CC=C)c1O)CCC(=O)N2CC=C(C)C | 133 to 135 °C |
| O=C(NCCOc1ccc(CC(Oc2ccccc2)C(=O)O)cc1Cl)c1ccc(-c2ccccn2)cc1 (configuration not stated) | 59 to 61 °C |
| CCCC(Cl)(Cl)C(NC(=O)c1ccc(Cl)cc1)NC(=N[N+](=O)[O-])Nc1cccnc1 (configuration not stated) | 198 to 200 °C |
| O=C(c1cccc2ccccc12)P1(=O)Oc2ccccc2-c2ccccc21 (configuration not stated) | 149 to 151 °C |
| Cc1ccc(S(=O)(=O)OCC2C(=O)Nc3ccccc3SC2c2ccccc2)cc1 (configuration not stated) | 215 °C |
| CCOC(=O)Nc1ccc(N2N=C(C)C(=CNc3ccccc3OC)C2=O)cc1 | 212 °C |
| O=C1c2ccccc2S(=O)(=O)c2c1cccc2-c1nnn[nH]1 | 271 °C |
| COC(=O)Nc1nc2cc(C(N)c3ccccc3)ccc2[nH]1 (configuration not stated) | > 232 °C |

| SMILES | melting point |
| --- | --- |
| CCOC(=O)[C@H](CSCc1ccc(C)c(C)c1)NC(=O)C(CSC(C)=O)Cc1ccccc1 (some centres not stated) | 51 to 55 °C |
| CC(C)n1nc(-c2c(-c3ccccc3)nn3c(N)cccc23)ccc1=O | 218 to 219 °C |
| Cc1nc(N2C(=O)N(Cc3ccc(F)cc3)CC2O)sc1C(=O)NCc1ccccc1 (configuration not stated) | 133 to 134 °C |
| COC(=O)c1c(OC)cc(OC)nc1C(F)(F)F | 85 to 87.5 °C |
| O=C(c1ccccc1CN1C(=O)C2(COc3cc4c(cc32)CCO4)c2ccccc21)N1CCCCC1 (configuration not stated) | 168 to 170 °C |
| O=C(Nc1ccc(Oc2cc(Cl)ncn2)cc1)Nc1ccc(Br)c(C(F)(F)F)c1 | 179 to 182 °C |
| CCCCc1cn(-c2ccccc2Cl)c(=O)n1Cc1ccc(-c2ccccc2-c2nnn[nH]2)nc1 | 81 to 83 °C |
| CCOC(=O)c1nnc(-c2ccc(S(C)=O)cc2)o1 (configuration not stated) | 129 to 131 °C |
| CC1NCc2ccsc2C1c1ccccc1 (configuration not stated) | 78 °C |
| CCCCCCCCc1c(N)nc(-n2cncn2)nc1CC | 90 to 91 °C |
| COC(=O)COc1ccc(C(=O)C(C)Br)cc1Cl (configuration not stated) | 63 to 65 °C |
| O=S(=O)(c1ccc2c(Cl)cccc2c1)N1CC2CC1CO2 (configuration not stated) | 132 to 133 °C |
| Clc1nc(Cl)c2c(n1)CCCS2 | 110 °C |
| CC(=O)Nc1ccc(OC/C=C(\C)C=O)cc1 | 127 to 130 °C |
| c1cc(CCCn2ccnc2)cc(OCc2ccc3oc(-c4cccs4)nc3c2)c1 | 86 to 87 °C |
| O=C(O)c1ccc(-c2c([N+](=O)[O-])oc3ccc(-c4ccccc4)cc23)cc1 | 235 to 249 °C |
| O=C=NC(=O)CS(=O)(=O)c1ccc2ccccc2c1 | 152 to 155 °C |
| COc1ccc(C2CNCCc3c2cc(OC)c(OC)c3Cl)cc1 (configuration not stated) | 139 to 142 °C |
| O=C(CO[C@H]1NC(=O)[C@@H]1NC(=O)c1ccccc1)CC(=O)OCc1ccc([N+](=O)[O-])cc1 | 138 to 139 °C |
| CC(C(=O)O)c1ccc(OCCNC(=O)C2Cc3ccccc3N2S(=O)(=O)c2ccc(-c3cc(C(F)(F)F)ccc3Cl)cc2)cc1 (configuration not stated) | 91 to 100 °C |
| Cc1ccc(S(=O)(=O)C(C)(C)C(=O)C2CCCCC2)cc1 | 123 to 124 °C |
| O=C(O)CCc1conc1-c1ccc(Cl)c(F)c1 | 148 to 149 °C |
| NC(=O)CCCOc1ccc(C23CC4CC(CC(C4)C2)C3)cc1 | 176 to 177 °C |
| CCNC(=O)Nc1ccc2c(=O)n(CCCCN3CC=C(c4ccccc4)CC3)c(=O)[nH]c2c1 | 220 °C |
| COc1ccc(-c2cc(-c3ccccc3F)c(C#N)c(C)n2)cc1 | 152 to 153 °C |

| SMILES | melting point |
| --- | --- |
| CC(C)(CCCOc1cccc(C(F)(F)F)c1)C(=O)O | 96 to 97 °C |
| CC(C)(C)COc1ccc(NC(=O)c2ccn(-c3ccc(F)cc3)c2)cc1C#N | 167 to 169 °C |
| CCCCCCCCCCCCCCCCCCOC(=O)N(N)C(=O)c1cc(O)ccc1O | 163 °C |
| Cc1oc(-c2ccccc2)nc1COc1ccc(CON=C(CC(N)=O)c2ccccc2)cc1 | 164 to 165 °C |
| CCOC(=O)C1=C(C)NC(=S)N(C(=O)OCC)C1c1ccc([N+](=O)[O-])cc1 (configuration not stated) | 163 to 165 °C |
| Cc1ccc(-n2nc(C(=O)CCCO[N+](=O)[O-])cc2-c2ccc(S(C)(=O)=O)cc2)cc1 | 107 to 109 °C |
| CC(=O)N1C(=CC(C#N)=C2OC(CO)CN2C)C(=O)c2ccccc21 (configuration not stated) | 218 to 220 °C |
| COc1ccc(CNC(=O)c2c(NC(=O)c3ccc(C(=O)O)cc3)sc3c2CCCC3)cc1OC | > 270 °C |
| CCCCCCCCCCNC(=O)C=Cc1cccc(NC(=O)/C=C\C(=O)O)c1 | 187 to 188 °C |
| CCN(CC)C(=O)CCNC1(c2ccccc2Cl)C(=O)Nc2ccc(Cl)cc21 (configuration not stated) | 185 °C |
| CCOC(=O)c1c(C)nc(NCCCN(C)C)c2nnn(CC)c12 | 30 to 34 °C |
| COc1ccc(CN2C(=O)C3(COc4cc(O)c(C#N)cc43)c3ccccc32)cc1 (configuration not stated) | 112 to 114 °C |
| C=CCCC1C=CCC2=C1C(=O)C1=C(CCCC1)C2=O (configuration not stated) | 47 to 48 °C |
| ClCc1c(Cl)nnc(Cl)c1Cl | 102 to 104 °C |
| O=C(O)CCc1cnoc1-c1cc(Cl)c(Cl)s1 | 142 to 143 °C |
| O=c1cc(NCCN2CCN(c3ncccn3)CC2)cn[nH]1 | 199 to 201 °C |
| O=C(OCc1ccc(-c2ccccc2)cc1)c1cccc(CCl)c1 | 102 °C |
| CC(C)CNc1c(N)c2nnnn2c2cnccc12 | 203 to 204 °C |
| CCCc1c(OCCCS(=O)(=O)c2ccc(CC(=O)OC)c(Cl)c2Cl)ccc(C(C)=O)c1O | 115 to 118 °C |
| COc1cc(NC(=O)CNC(=O)c2ccccc2)ccc1-c1cnco1 | 243 to 245 °C |
| CCN(C/C=C/C#CC(C)(C)C)Cc1cccc(N2C(=O)c3ccccc3C2=O)c1 | 65 to 66 °C |
| CC(C)=CCOc1ccc(C2=C(CC(C)C)C(=O)NC2=O)cc1 | 110 to 111 °C |
| Cc1c(Cl)sc2c1c(-c1ccccc1)nc(=O)n2C | 190 to 192 °C |
| CC(Oc1ccc(Oc2nc3ccc(Cl)cc3s2)cc1)C(=S)OC[Si](C)(C)C (configuration not stated) | 90 °C |
| COc1cc(C)c(C(O)c2c(Cl)cnc(Cl)c2C(F)(F)F)c(OC)c1OC (configuration not stated) | 162 to 165 °C |

| SMILES | melting point |
| --- | --- |
| Nc1c([N+](=O)[O-])c(C(F)(F)F)nn1-c1c(Cl)cc(C(F)(F)F)cc1Cl | 214 to 215 °C |
| CCCCCCCCCCCCc1c2c(=O)c3cc(-c4cccs4)ccc3c2c(CCCCCCCCCCCC)c2c(=O)c3cc(-c4cccs4)ccc3c12 | 205 to 206 °C |
| CCCCCS(=O)(=O)NC(=O)CCc1ccc(OCCOC)cc1Oc1ccccc1 | 70.4 to 70.5 °C |
| Cc1nc2c(N)nc3ccccc3c2n1CCCCCCS(C)(=O)=O | 202 to 206 °C |
| Nc1ccc(-c2nc3ccccc3s2)cc1Br | 160 to 161 °C |
| O=C1Nc2ccccc2N2CCN(c3ccccc3)CCN12 | 198 to 199 °C |
| COCc1ccc(Oc2cncc3sc(C(N)=O)cc23)cc1 | 168 °C |
| O=C(CCC1CCN(Cc2ccccc2)CC1)c1ccc(Nc2ncnc3c2CCC3O)cc1 (configuration not stated) | 189 to 190 °C |
| CCCC(C=NNC(=O)OCC)c1ccc(Cl)cc1Cl (configuration not stated) | 127 to 129 °C |
| O=S(=O)(c1ccccc1)n1c(Cc2cc3ccccc3n2S(=O)(=O)c2ccccc2)cc2ccccc21 | 144 to 145 °C |
| COc1cccc(COC(=O)c2ncn3c2[C@@H]2CCN2C(=O)c2c(Cl)cccc2-3)c1 | 126 to 127 °C |
| Cc1[nH]cnc1CSCCNc1[nH]cc(CCc2ccccc2)c1[N+](=O)[O-] | 186 to 187 °C |
| CC(C)(C)NCCNC(=O)Cn1ncc(-c2ccccc2)c1-c1ccccc1 | 115 to 116 °C |
| Nc1cccc(C=CC(=O)N2CCc3c([nH]c4ccccc34)C2c2ccc3c(c2)OCO3)c1 (configuration not stated) | 139 to 141 °C |
| CC(=O)N[C@H]1CC[C@H](c2ccc([N+](=O)[O-])cc2)CC1 | 221 to 224 °C |
| COc1cc(C(=O)NS(=O)(=O)c2ccccc2C)ccc1Cc1cn(C)c2ccc(C(=O)NC[C@H](C)CC(F)(F)F)cc12 | 142 to 144 °C |
| Cc1cc2oc(C#N)cc(=O)c2c(C)c1Cl | 142 to 143 °C |
| O=C(/C=C/c1ccc(NC(=O)Cc2cccc3ccccc23)cc1)NO | 222 to 224 °C |
| Cc1nc(-c2ccc(F)cc2)c(-c2ccc(S(C)(=O)=O)cc2)s1 | 229 to 233 °C |
| CN(C)c1ccc(C(c2cc(C(C)(C)C)c(O)c(C(C)(C)C)c2)N2CCCCC2)cc1 (configuration not stated) | 184 to 185 °C |
| O=Cc1cnc2n1CCc1ccccc1C2=C1CCN(CCc2ccc(OCc3ccc4ccccc4n3)cc2)CC1 | 194 °C |
| Cn1c(CNC(=O)c2ccc3ccccc3c2)nc(-c2ccncn2)cc1=O | 250 to 252 °C |
